In publication doi:10.1101/2022.07.25.501471v5 (biorxiv, 2023):

How the values were obtained:
[1] = target: T1, CreTPT3 (His-CreTPT3) (Chlamydomonas reinhardtii, UniProt A8HN02); assay: inhibition of […]Pi uptake into proteoliposomes; type: cell-based; conditions: competitive; 0.25 mM external Pi, 30 mM Pi inside, competitor 0.05-5 mM, 4 min
T1 sequence (A8HN02 61-406): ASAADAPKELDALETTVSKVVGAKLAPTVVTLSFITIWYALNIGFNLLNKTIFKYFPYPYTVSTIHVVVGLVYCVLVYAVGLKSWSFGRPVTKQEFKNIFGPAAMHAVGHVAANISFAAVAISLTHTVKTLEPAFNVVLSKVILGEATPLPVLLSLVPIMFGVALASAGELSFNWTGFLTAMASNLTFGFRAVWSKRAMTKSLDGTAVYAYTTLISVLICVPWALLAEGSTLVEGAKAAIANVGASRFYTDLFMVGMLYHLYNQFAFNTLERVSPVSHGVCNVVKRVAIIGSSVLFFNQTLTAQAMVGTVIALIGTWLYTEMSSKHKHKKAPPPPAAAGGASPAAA

[2] = target: T2, CreTPT2 (His-CreTPT2) (Chlamydomonas reinhardtii, UniProt A0A2K3DMX1); assay: inhibition of […]Pi uptake into proteoliposomes; type: cell-based; conditions: competitive; 0.25 mM external Pi, 30 mM Pi inside, competitor 0.05-5 mM, 4 min
T2 sequence (A0A2K3DMX1 71-401): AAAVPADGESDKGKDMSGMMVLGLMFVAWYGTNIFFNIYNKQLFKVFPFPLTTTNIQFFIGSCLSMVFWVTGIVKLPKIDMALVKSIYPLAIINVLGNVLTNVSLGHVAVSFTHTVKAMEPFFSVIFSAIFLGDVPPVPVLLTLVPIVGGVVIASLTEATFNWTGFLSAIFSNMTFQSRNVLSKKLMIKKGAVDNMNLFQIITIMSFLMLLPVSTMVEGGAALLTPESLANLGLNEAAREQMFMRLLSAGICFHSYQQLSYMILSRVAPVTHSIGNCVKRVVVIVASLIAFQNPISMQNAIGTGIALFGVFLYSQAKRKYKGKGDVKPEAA

| Compound | Ki [1] [µM] | Ki [2] [µM] |
| --- | --- | --- |
| O=C(CO)COP(=O)(O)O [DHAP] | 570 ± 13 | 710 ± 120 |
| O=C(O)[C@H](O)COP(=O)(O)O [3-PGA] | 790 ± 122 | 780 ± 190 |
